Reference: patent publication US8592374B2, “Neurotrophic peptides” (Research Foundation for Mental Hygiene, Inc., priority 2007, dated 2013)

How the values were obtained:
normal adult mice = assay: Morris Water Maze task, CNTF 6a / CNTF 6c pellets 30 days; type: in vivo
Procedure: For behavioral studies, performance on the Morris Water Maze task was assessed in three groups of 10 mice each (placebo, CNTF6a and CNTF6c) which received peptide treatment for 30 days. To avoid daily stress due to injections, all animals undergoing behavioral studies received subcutaneous implants of CNTF 6a, CNTF 6c or placebo pellets as described above.
All animals for behavioral testing were coded such that the experimentator was blind to the assignment of the animals to specific treatment groups. The Morris Water Maze procedure was performed using a 110 cm diameter circular tank. Before training, the mice were handled gently for 2-3 min/day during 3 days to minimize non-specific stress. Acquisition was started with the submerged (invisible) escape platform in the North-East quadrant and each animal was given 60 sec to find the submerged escape platform. […] Five such acquisition trials were given on each day, for four consecutive days. A test for retention, or probe trial, was given 24 hours later. During the probe trial the mouse was allowed to swim in the tank without the escape platform for 60 seconds. This was followed by second and third probe trials 15 and 30 days from the first probe trial. Each probe trial was immediately followed by a “retraining session” consisting of 5 trials/animal to consolidate learned behavior.
The measures of learning were the time and distance swum to reach the escape platform. For retention during the probe trial, the tank was divided into four imaginary quadrants and a small zone where the escape platform had been (virtual platform). The measures of retention were the percent of time spent and the percent of distance swum in each quadrant, and the number of entries into the platform zone.
Mouse behavior in the Morris Water Maze was monitored by a Samsung Digital Camera (SDC 4304) mounted to the ceiling and tracked and timed by a SMART (Pan Lab/San Diego Instruments) version 2.0.14 software.
Since normal adult mice were used as experimental animals, it was crucial not to miss any effect on memory acquisition and learning that the 30-day peptide treatment might have had. Therefore, a partial training paradigm was used to evaluate learning and memory in the Morris Water Maze. Treated mice were trained on the Morris Water Maze for a total of 20 sessions spanning 4 days after which they were subjected to the first probe trial (P1). Two additional probe trials (P2 and P3) were administered 15 and 30 days after P1. […] Learning was evaluated in terms of latency and distance traveled to reach the invisible escape platform. Retention was measured on probe trials by the percent of time and travel distance in the target quadrant, and the number of crossings of the virtual platform.

GCL of the dentate gyrus = assay: MAP2 and synaptophysin expression in the GCL (mean pixel intensity), Example 4; type: in vivo, mice; details: 30-day treatment
From the text: The following primary antibodies were used for immunohistochemistry: anti-BrdU (1:400; Accurate) a rat monoclonal raised against BrdU; anti-DCX (1:200; Santa Cruz Biotechnology Inc.), a goat polyclonal antibody raised against an 18-amino acid peptide representing residues 384-410 of human doublecortin; anti-NeuN (1:500; Chemicon), a mouse monoclonal antibody raised against purified cell nuclei from mouse brain; Anti-c-Fos (Ab-5) (1:500; Calbiochem), a rabbit polyclonal antibody raised against a synthetic peptide corresponding to amino-acids 4-17 of human c-Fos; SMI52 (1:1000; Sternberger Monoclonals), a mouse monoclonal antibody specific for the mature neuronal marker MAP2a,b; anti-synaptophysin, SYN (1:200; Chemicon), a mouse monoclonal antibody raised against vesicular fraction of bovine brain. […]
For MAP2 and Synaptophysin IR, the entire area of GCL was outlined on every 10th section. Maximum projection images were then generated based on confocal z-stacks, and the antibody staining was quantitated by measuring mean pixel intensity (MPI) with the help of Image-Pro Plus 5.0 software (Media Cybernetics).

[1] = test system: neural progenitor cells of the dentate gyrus; assay: Stereological counts of BrdU-IR cells in subregions of the hippocampus, 30-day pellets; type: in vivo, mice
Procedure: All in vivo studies for characterization of peptides (stereology and behavioral analysis) were performed on 8-10-month-old female retired breeders of C57Bl6 background. The animals were acclimatized for at least 3 weeks to exclude occasional pregnant mice from the studies. Mice were group-housed (3 animals per cage) with a 12:12 light:dark cycle and with free access to food and water. All procedures were conducted in accordance with approved protocols from our institutional Animal Welfare Committee.
(§1) To study neurogenesis, mice received subcutaneous implants of extended release depot pellets containing either CNTF peptides 6a or 6c for 30 days of continuous dosing (Innovative Research of America, Sarasota, Fla.). For control groups, the pellets consisted of the carrier biopolymer only. For implantation, the mice were anesthetized with 2.5% Avertin (0.38 ml for a 25 g animal). Under sterile conditions, the pellets were then subcutaneously implanted along the anterolateral aspect of the right shoulder with a precision trochar (Innovative Research of America). The animals were then transferred to the animal colony after recovery from anesthesia. There were no complications associated with the implantation and treatment. BrdU was given as two daily i.p. injections (100 mg/kg/dose) for five days starting on day 2 of peptide treatment. Neurogenesis was assessed in the dentate gyrus (DG) by counting the number of BrdU-immunoreactive (BrdU-IR), BrdU-DCX-IR and BrdU-NeuN-IR cells in various layers of the DG. Employing principles of unbiased stereology, the optical fractionator method was used to estimate cell counts for the DG.
At the end of treatment, all animals were anesthetized with an overdose of sodium pentobarbital and transcardially perfused with 0.1 M PBS. After perfusion, the brains were removed from the skull, the left hemisphere was immediately frozen for future biochemical analysis and the right hemisphere was fixed in 4% paraformaldehyde in 0.1 M PBS for at least 24 hours at room temperature. Tissues were then stored in 30% sucrose solutions at 4° C. until sectioning. The brains were sectioned sagittaly on a freezing sliding microtome at […] through the entire hippocampus and the sections were stored in glycol anti-freeze solution (Ethylene glycol, glycerol and 0.1 M PBS in 3:3:4 ratio) at −20° C. till further processing.
(§2) Immunohistochemistry was performed as described elsewhere (Kuhn et al., J. Neurosci 17 (15) (1997): 5820-5829). Briefly, every 5th brain section was chosen for quantification of cell number and every 10th section was chosen for staining intensity scanning. Immunohistochemistry was performed on free floating sections. For BrdU immunohistochemistry, epitope retrieval and staining were performed as previously described (Kuhn et al., J. Neurosci 17 (15) (1997): 5820-5829).
Neurogenesis was assessed in the DG by counting the number of BrdU-immunoreactive (BrdU-IR), BrdU-DCX-IR and BrdU-NeuN-IR cells in various layers of the DG. The granule cell layer (GCL) was subdivided into an inner and outer half (iGCL and oGCL). The iGCL consisted of the subgranular zone (SGZ, defined as a 2-3 nuclei thick layer bordering the GCL) and the inner half of the GCL adjacent to the Hilus (Hil); the outer GCL (oGCL) was defined as the half of the GCL adjacent to the Molecular layer (Mol). A cell in the middle of the GCL was considered part of the iGCL and a cell bordering the GCL in the Mol was included in oGCL counts. […] Hil included the superficial polymorphic layer.
All sections were collected using the random uniform sampling scheme. For BrdU-IR cells, counting was performed on every 5th section using 40× oil objective of a Nikon 90i fluorescent microscope equipped with Nikon C1 three laser confocal system and a Nikon DS U1 digital camera. Employing principles of unbiased stereology, the optical fractionator method was used to estimate cell counts for the DG (West et al., Anat Rec 231 (1991): 482-497). […]

[2] = test system: granule cell layer of the dentate gyrus; assay: Stereological counts of DCX-, BrdU-NeuN- and c-Fos-NeuN-IR cells in the granule cell layer; type: in vivo, mice
Procedure: as §1
The following primary antibodies were used for immunohistochemistry: anti-BrdU (1:400; Accurate) a rat monoclonal raised against BrdU; anti-DCX (1:200; Santa Cruz Biotechnology Inc.), a goat polyclonal antibody raised against an 18-amino acid peptide representing residues […] of human doublecortin; anti-NeuN (1:500; Chemicon), a mouse monoclonal antibody raised against purified cell nuclei from mouse brain; Anti-c-Fos (Ab-5) (1:500; Calbiochem), a rabbit polyclonal antibody raised against a synthetic peptide corresponding to amino-acids 4-17 of human c-Fos; SMI52 (1:1000; Sternberger Monoclonals), a mouse monoclonal antibody specific for the mature neuronal marker MAP2a,b; anti-synaptophysin, SYN (1:200; Chemicon), a mouse monoclonal antibody raised against vesicular fraction of bovine brain. The following secondary antibodies were used: Alexa 488-conjugated goat anti-mouse IgG antibody and Alexa 594-conjugated goat anti-rabbit or anti-rat IgG antibody (Molecular Probes); biotinylated anti-rat IgG antibody and Cy5-conjugated goat anti-mouse antibody (Jackson ImmunoResearch).
as §2
For BrdU-DCX-, BrdU-NeuN-, and c-Fos-NeuN-IR cells, only GCL (consisting of iGCL and oGLC described above) was counted using 100× oil objective in every 10th section. To ensure objectivity, z-stacks were collected for each double IR cell and analyzed later by generating maximum projection and 3D constructs.

[3] = 30-day pellets, 50 nmol/peptide/animal/day
[4] = 30-day treated mice (n = 5/group)

## Ac-DGGL-NH2 [CNTF 6c]
Normal adult mice; 30-day pellets, 20 training sessions over 4 days
  learning in the spatial reference memory task (swim latencies): no effect
Normal adult mice; P1, P2, P3
  percent time spent in the target quadrant across three probe trials: spent the same percent amount of time in the target quadrant
GCL of the dentate gyrus
  increase of MAP2 expression in the GCL (mean-pixel intensity): 31%
  increase of synaptophysin expression in the GCL (mean-pixel intensity): 26%
[1]; 30-day pellets
  BrdU-IR cells in oGCL, Mol or Hil compared to control: no significant differences
[1]; [3]
  increase of BrdU-IR cell counts in the GCL compared to placebo: 31%
  increase of number of BrdU-IR cells in the iGCL compared to control: 45%
[1]; [4]
  Stereological counts (±SEM) of BrdU-IR cells, GCL: 560 ± 24
  Stereological counts (±SEM) of BrdU-IR cells, Hil: 121 ± 16
  Stereological counts (±SEM) of BrdU-IR cells, Mol: 487 ± 28
  Stereological counts (±SEM) of BrdU-IR cells, iGCL: 486 ± 31
  Stereological counts (±SEM) of BrdU-IR cells, oGCL: 74 ± 10
[2]; [4]
  Stereological counts (±SEM) of cells expressing DCX in the granule cell layer: 656 ± 43
  Stereological counts (±SEM), NeuN-BrdU/BrdU in the granule cell layer: 39 ± 2
[2]; 30-day treated mice (n = 5/group), basal activity
  Stereological counts (±SEM) of c-fos-NeuN cells in the granule cell layer: 247 ± 23
[2]; 30-day treatment
  increase in BrdU-NeuN-IR cells in the GCL compared with placebo: 62%
  increase of DCX-IR cells in the GCL compared to placebo: ~91%
[2]; 30-day treatment, without behavioral stimulation
  increase in number of mature neurons (NeuN-IR) co-expressing c-fos in the GCL: ~47%
